Data taken from patent US20260284208A1, “SYSTEM” (Oxford University Innovation Limited, priority 2023, published 2026).

System: library of 8,380 IKZF3 degrons (ZF-eGFP/mCherry reporter) in Jurkat cells
Assay: Pooled library screen (FACS, NGS, limma voom LogFC of positive vs negative read counts)
Format: cell-based, human
Description: A library of 8,380 IKZF3 degrons was cloned into pLVX-Sprout to create the eGFP/mCherry protein degradation reporter plasmid pool. A lentivirus pool was then generated using the Lenti-X lentiviral vector production method.
Jurkat cells were transduced at a multiplicity of infection of <0.3 with the lentivirus vector library in order to maximise the number of cells with a single integration. Transductions were carried out in 6 well TC-treated cell culture dishes (Falcon) with 3×10^6 cells per well. Cells were incubated for 2 days at 37° C. and 5% CO2 before the supernatant was removed and replaced with fresh media. 6 days post-transduction, mCherry+ cells were isolated via FACS using the FACS Aria Fusion (BD) in a buffer containing PBS (Gibco), 2 mM EDTA (Gibco), 25 mM HEPES (Sigma) and 1% BSA (Sigma). 8 days later, cells were treated with DMSO or a thalidomide analog for 18 hours at 37° C. and 5% CO2. mCherry+GFPlow and NOT(mCherry+GFPlow) cells were sorted by FACS using the FACS Aria Fusion (BD). DMSO treated cells were used to set the mCherry+GFPlow gate and dead cells were excluded from sorting by staining cells with 1 μg/mL DAPI (ThermoFisher). gDNA was isolated using the Maxwell RSC 48 (Promega). gDNA from cells that were unsorted and untreated were also isolated to determine the library representation on the day of compound treatment. Throughout the screen >600× coverage of the library was maintained. 3 biological replicates were carried out with a new transduction taking place each time.
A two-step PCR was used where the first PCR (PCR1) amplified the integrated degron sequence from gDNA and the second PCR (PCR2) added Illumina adaptors and barcodes to permit multiplexing. See Supp F for PCR1 and PCR2 primers. Q5 Hot Start High-Fidelity 2× Master Mix (New England Biolabs) was used for both PCRs. Sufficient gDNA was amplified in PCR1 in order to maintain >600× coverage and amplicons were purified using solid phase reversible immobilization (SPRI) beads (Beckman Coulter). Purified PCR1 products were analysed on the Tapestation 4200 (Agilent) to confirm purity prior to proceeding to PCR2. Sufficient PCR1 product was amplified in PCR2 in order to maintain >600× coverage and amplicons were run on a 2% agarose TAE gel. Target bands were excised and purified using the NucleoSpin Gel and PCR Clean-up Kit (Machery Nagel). Amplicons were analysed on the Tapestation 4200 and quantified using Qubit dsDNA HS kit (ThermoFisher). PCR products were pooled and sequenced as paired-reads on the NovaSeq (Illumina) using a SP2 200 cycles kit (Illumina).
Count distributions, percentage of read mapping, library coverage and replicate correlation per sample were assessed for QC purposes.
To carry out the library screen, we used the same plasmid construct as in our earlier flow cytometry assays, but pooling all 8,380 mutants together into one Jurkat population, ensuring a copy number of one plasmid per cell (FIG. 4B). […] These GFP-negative cells were then separated from the remaining GFP-positive population using fluorescence activated cell sorting (FACS). These two populations were then sequenced and the relative abundance of every mutant in both populations compared to provide a log FC value for each mutant sequence. This value indicated how frequently a sequence is observed in the GFP-negative population relative to the GFP-positive population, and therefore how effective a degron it is for that particular IMID compound.

Structure (SMILES): CC(C)(C)c1ccc2c(c1)C(=O)N(C1CCC(=O)NC1=O)C2=O (stereo not shown) [A63, 5-(tert-butyl)-2-(2,6-dioxopiperidin-3-yl)isoindoline-1,3-dione]
- position of the WT sequence in the volcano plot of the library screen (WT ZF sequence): far away from the ‘hits’ region
- A63_logFC (Estimated LogFC Coefficient, positive vs negative read counts) (mutant degron: Degron-ID 214, SEQ ID NO 1763, 46F_47A_49P_50Q_52G_53A_54R_55F_67L): 2.012
- A63_logFC (Estimated LogFC Coefficient, positive vs negative read counts) (mutant degron: Degron-ID 1093, SEQ ID NO 1762, 46F 47F_49N_50I_52G_53A 54Q 55F 67L): 2.015
- A63_logFC (Estimated LogFC Coefficient, positive vs negative read counts) (mutant degron: Degron-ID 1448, SEQ ID NO 1767, 46F_47H_49D_50I_52G_53A_54K_55F_67L): 2.005
- A63_logFC (Estimated LogFC Coefficient, positive vs negative read counts) (mutant degron: Degron-ID 1792, SEQ ID NO 1752, 46F 47I 49E_50V_52G_53A 54P 55F 67L): 2.03
- A63_logFC (Estimated LogFC Coefficient, positive vs negative read counts) (mutant degron: Degron-ID 2032, SEQ ID NO 1761, 46F_47K_49E_50V_52G_53A_54P 55F 67L): 2.016
- A63_logFC (Estimated LogFC Coefficient, positive vs negative read counts) (mutant degron: Degron-ID 2220, SEQ ID NO 1759, 46F_47L_49E_50I_52G_53A_54A_55F_67L): 2.022
- A63_logFC (Estimated LogFC Coefficient, positive vs negative read counts) (mutant degron: Degron-ID 2352, SEQ ID NO 1758, 46F_47L_49P_50I_52G_53A 54P 55F_67L): 2.022
- A63_logFC (Estimated LogFC Coefficient, positive vs negative read counts) (mutant degron: Degron-ID 2873, SEQ ID NO 1765, 46F_47N_49P_50V_52G_53A_54Q_55F_67L): 2.01
- A63_logFC (Estimated LogFC Coefficient, positive vs negative read counts) (mutant degron: Degron-ID 2874, SEQ ID NO 1756, 46F_47N_49P_50V_52G_53A_54R_55F_67L): 2.023
- A63_logFC (Estimated LogFC Coefficient, positive vs negative read counts) (mutant degron: Degron-ID 3479, SEQ ID NO 1750, 46F_47S_49E_50V_52G_53A_54Y_55F_67L): 2.034
- A63_logFC (Estimated LogFC Coefficient, positive vs negative read counts) (mutant degron: Degron-ID 3732, SEQ ID NO 1751, 46F 47T 49N 50I 52G 53A 54P 55F 67L): 2.034
- A63_logFC (Estimated LogFC Coefficient, positive vs negative read counts) (mutant degron: Degron-ID 4130, SEQ ID NO 1769, 46F_47W_49D_50V_52G_53A_54M_55F_67L): 2.004
- A63_logFC (Estimated LogFC Coefficient, positive vs negative read counts) (mutant degron: Degron-ID 4210, SEQ ID NO 1753, 46F_47W_49N_50I_52G_53A_54M_55F 67L): 2.029
- A63_logFC (Estimated LogFC Coefficient, positive vs negative read counts) (mutant degron: Degron-ID 4213, SEQ ID NO 1757, 46F_47W_49N_50I_52G_53A_54Q_55F_67L): 2.023
- A63_logFC (Estimated LogFC Coefficient, positive vs negative read counts) (mutant degron: Degron-ID 6432, SEQ ID NO 1764, 46F_47W_49P_50I_52G_53R_54P_55F_67L): 2.011
- A63_logFC (Estimated LogFC Coefficient, positive vs negative read counts) (mutant degron: Degron-ID 6552, SEQ ID NO 1755, 46L 47F_49P_50I_52G_53F_54P 55C 67L): 2.023
- A63_logFC (Estimated LogFC Coefficient, positive vs negative read counts) (mutant degron: Degron-ID 6583, SEQ ID NO 1754, 46L_47H_49P_50I_52G_53F_54E_55C_67L): 2.028
- A63_logFC (Estimated LogFC Coefficient, positive vs negative read counts) (mutant degron: Degron-ID 7601, SEQ ID NO 1760, 46L_47A_49E_50I_52G_53F_54C_55C_67L): 2.006
- A63_logFC (Estimated LogFC Coefficient, positive vs negative read counts) (mutant degron: Degron-ID 7628, SEQ ID NO 1770, 46L_47C_49E_50I_52G_53F_54K_55C_67L): 2.001
- A63_logFC (Estimated LogFC Coefficient, positive vs negative read counts) (mutant degron: Degron-ID 7865, SEQ ID NO 1760, 46L 47R_49E_50I_52G_53F_54G_55C_67L): 2.019
- A63_logFC (Estimated LogFC Coefficient, positive vs negative read counts) (mutant degron: Degron-ID 7971, SEQ ID NO 1768, 46L_47Y_49E_50I_52G_53F_54N_55C_67L): 2.005
